Test results taken from patent US20080269121A1, “Methods and Compositions Involving A1c Subunit of L-Type Calcium Channels in Smooth Muscle Cells” (The Board of Regents of the University of Texas System, priority 2005, published 2008).
“Also recorded” adds a separate entry of the source.

Assays:
α1C1b promoter = α1C1b promoter luciferase reporter activity in HCCSMC; type: cell-based, human
Method: Transient cell transfections and luciferase activity. FuGENE 6 (Roche, Mannheim, Germany) is used to transfect luciferase-expressing pGL2 constructs in HCCSMC. The cells in passage 4 are seeded into 12-well plates (Costar, Acton, Mass.) and grown to 70% to 80% confluency. Transfections are carried out by incubation of cells in each well with 1.5 μl of FuGENE 6, 0.5 μg of pGL2 construct, and 0.125 μg of pSEAP2 Control Vector (BD Biosciences Clontech, Palo Alto, Calif.) for 24 h as per manufacturer's instructions. The pSEAP2 Control Vector is co-transfected for normalization of data. The transfected cells were treated with stimulus or medium control and harvested after 24 hours. Twenty μl of the supernatant of the cell lysates are taken for the measurement of luciferase activity by a luminometer (Promega, Madison, Wis.). The SEAP activity is measured with a Clontech SEAP detection kit by following the manufacturer's instructions.
Promoter constructs, 5′-deletions, and site-directed mutagenesis. The promoter constructs of hα1c1b are prepared by PCR amplification of human genomic DNA (Roche, Indianapolis, Ind.) and digested partially with Hind III (Promega, Madison, Wis.) using the FailSafe PCR kit (Epicentre, Madison, Wis.). The PCR product is subcloned into pDrive Cloning Vector with the PCR Cloning^plus kit (Qiagen, Valencia, Calif.) and SURE 2 supercompetent cells (Stratagene, La Jolla, Calif.) and subsequently transferred to the luciferase expression plasmid pGL2-Basic Vector (Promega, Madison, Wis.). The deletion constructs are made using the full length promoter construct as a template in PCR reactions. The same methods and kits are used to subclone the sequenced PCR products into the pDrive and pGL2 vector. The site-directed mutagenesis is carried out using QuikChange® II XL Site-Directed Mutagenesis Kit from Stratagene (La Jolla, Calif.), as per manufacturer's instructions.

CREB = CREB phosphorylation in HCCSMC; type: cell-based, human
Method: Western immunoblotting. Each lane is loaded with 10 μg protein and size-separated on a 10% SDS polyacrylamide gel. After blotting, the nitrocellulose membranes are blocked with 10% non-fat dried milk at 4° C. overnight. The blots are incubated with appropriate dilution of the antibody at 4° C. overnight and appropriate dilution of designated secondary antibody at room temperature for 1 h. β-actin is used as internal control.

ERK ½ = assay: MAP kinase phosphorylation: ERK ½; type: cell-based
JNK/SAPK = assay: MAP kinase phosphorylation: JNK/SAPK; type: cell-based
[1] = tested on: TNBS-induced inflammation; type: in vivo, rat; details: intact rat model, treatment through osmotic pumps, expected
Method: Muscle bath experiments. Pure circular muscle strips (2 mm×10 mm) are prepared from resected human colon segments. The strips are mounted in 5 ml baths filled with carbonated Krebs solution (in mM: 118 NaCl, 4.7 KCl, 2.5 CaCl2, 1 NaH2PO4, 1-2 MgCl2, 11 D-glucose, and 25 NaHCO3) at 37° C. (Siebenlist et al., 1994; Barnes and Karin, 1997). The muscle strips are equilibrated for 1 h at 1 g tension and then stretched until maximal response is obtained to 10^−4 m ACh. The bathing solution is replaced every 15 min. Contractions are measured by force transducers and analyzed by DATAQ (Akron, Ohio) software.
Vertebrate Animals. Sprague-Dawley rats were used. For tissue harvesting, the rats were anesthetized with 5% isoflurame in 100% oxygen for 5 to 7 minutes followed by i.p. injection of 50 mg/kg ketamine.
Osmotic pumps were implanted under anesthesia as discussed above. Lateral surface of left back were shaven and cleaned with betadine. A 2 cm incision was made in the skin and subcutaneous facia and muscle separated. The micro-osmotic pump were implanted intramuscularly and the incision was closed.
Colonic inflammation was induced by intraluminal injection of 30 mg/kg or 130-mg/kg trinitrobenzene sulfonic acid (TNBS) under anesthesia, as described above.

p65 subunit = assay: Nuclear abundance and binding of NF-κB p65 in HCCSMC; type: cell-based, human
Method: Cytoplasmic and nuclear protein, and RNA extraction: Cytoplasmic and nuclear proteins were prepared as described earlier by Shi et al. Briefly, the cells were washed twice with phosphate-buffered saline solution and then with buffer A (in mM: 10 HEPES, 1.5 MgCl2, 10 KCl, 0.5 dithiothreitol, 0.5 phenylmethylsulfrenyl fluoride [PMSF]; 10 ng/mL leupeptin, and 10 ng/mL aprotinin). The cells were resuspended in 25 μL of buffer A containing 0.25% NP-40 and incubated at 4° C. for 10 minutes. After centrifugation at 12,000 g for 10 minutes, the supernatant was collected as cytoplasmic extract. The nuclear pellet was resuspended in 20 μL of buffer C (in mM: 20 HEPES, […], 1.5 MgCl2, 0.2 ethylenediaimetetraacetic acid (EDTA), 0.5 DTT, 0.5 PMSF; 24% glycerol, 10 ng/mL leupeptin, and 10 ng/mL aprotinin) and incubated on ice with frequent vortexing for 15 minutes. The samples were centrifuged at 14,000 g for 10 minutes, and the supernatant (nuclear extract) was transferred to a fresh tube with 5 volumes of buffer D (in mM: 20 HEPES, 0.2 EDTA, 50 KCl, 0.5 DTT, 0.5 PMSF; 20% glycerol, 10 ng/mL leupeptin, and 10 ng/mL aprotinin). The protein concentration was determined by using the Bio-Rad assay kit (Bio-Rad Laboratories, Hercules, Calif.).
Electrophoretic mobility shift assay. […]

vasoactive intestinal polypeptide [VIP]
α1C1b promoter reporter (luciferase) activity (α1C1b promoter; substance by itself): enhanced in a concentration-dependent manner; also recorded: concentration-dependently increased; also recorded: enhanced promoter activity in normal cells | effect on suppression of α1C1b promoter activity by TNFα (α1C1b promoter; with TNFα): significantly blocked this reduction; also recorded: partially blocked the suppression | duration of CREB phosphorylation (CREB): lasted about one hour | phosphorylation of CREB (CREB; HCCSMC): phosphorylated upon exposure to VIP; also recorded: transient phosphorylation | phosphorylation of ERK ½ (ERK ½): time-dependently dephosphorylated | phosphorylation of JNK/SAPK (JNK/SAPK): time-dependently dephosphorylated | effect on suppression of contractility due to TNBS-induced inflammation [1]: partially inhibit the suppression of contractility | abundance of p65 in the nucleus, VIP and TNFα versus TNFα alone (p65 subunit): did not seem to be different
